# Reference: patent publication US20260207628A1, “25-HYDROXY-CHOLEST-5-EN-3-SULFATE CHOLINE, FORMULATIONS THEREOF AND METHODS FOR PREPARING, AND USES OF SAME” (Durect Corporation, priority 2022, published 2026)
# Where two headings read alike, the source gives them in different places.
# Experiments:
# [1] = Experimental: The aqueous solvents were water, 5% dextrose, 0.9% sodium chloride, Fasted State Simulated Intestinal Fluid (FaSSIF), Fed State Simulated Intestinal Fluid (FeSSIF) and Fasted State Simulated Gastric Fluid (FaSSGF). The organic solvents were methanol, ethanol, isopropanol and acetonitrile.
# These fluids were prepared per the instruction listed by Biorelevant (Biorelevant.com). Each buffer concentrate was diluted with water and mixed well. FaSSIF, FeSSIF, FaSSGF powder was added to each buffer and mixed to completely dissolve the powder. Buffers were stored at room temperature and used within 48 hours of preparation.
# Aliquots of each solvent were added to each sample and vortexed for about one minute until excess solid remained. Samples were placed on shaker at room temperature with 210 motion per minute shaking.
# After one day, samples were pulled and checked if excess solid was present. About 1.5 mL aliquot of each sample was centrifuged at 12000 rpm for 12 to 15 minutes. […] Aliquots of the top clear solution of each centrifuged sample in MeOH, EtOH, IPA and ACN were diluted with diluent (water:MeOH 95:5) and assayed by HPLC.
# A linear standard curve was constructed using standards with concentration between 11 μg/mL to 1.5 mg/mL as free acid forcing the curve to origin. Solubilities are reported as mg/mL free acid 25HC3S. Detection limit (LOD) of the HPLC method was calculated as 0.0007 mg/mL.
# [2] = remark: listed apart in the source
# Experimental: Four vials were prepared and stored at 2-8° C. or […] according to Table B2. The samples were scheduled initially to pull for testing at 3 weeks and 6 weeks time points.
# For appearance, each unopened vial was visually examined for color, clumping, and flowability.
# Samples were prepared by pipetting 20 mL of 100% methanol into each vial and mixing well, with sonication and vortexing to fully dissolve the samples for HPLC analysis.
# HPLC analysis was performed.
# [3] = Dynamic vapor sorption (DVS), sorption/desorption 5% to 95% RH; assay type: physicochemical
# Source text: Dynamic vapor sorption data was collected on a Surface Measurement System DVS Intrinsic instrument. The samples were not dried prior to analysis. […] Data were not corrected for the initial moisture content of the sample.
# [4] = Biorelevant drug release, USP Apparatus 2, 0-30 min FaSSGF then FaSSGF + double strength FaSSIF; assay type: physicochemical; conditions: at 90 minutes, biorelevant media
# Experimental: Biorelevant media as used herein is a combination of 2 different media used at different times. The first is in FaSSGF which stands for Fasted-state simulated gastric fluid and is used for 30 minutes of drug release. Afterwards, drug release is measured with addition of double strength FaSSIF which is Fasted-state simulated intestinal fluid. A skilled artisan would understand that the double strength FaSSIF is added at 30 minutes.
# As used herein, the biorelevant drug release was conducted using a USP Apparatus 2 with (1) 0-30 minutes in 450 mL FaSSGF; and (2) 30-90 minutes FaSSGF+double strength FaSSIF in a total of 900 mL of media with pH adjusted to 6.5; with a paddle speed of 75 rpm (0-75 minutes) and 250 rpm (75-90 minutes) and a vessel temperature of 37° C.
# [5] = by angle of repose
# Experimental: Angle of repose is measured as follows. Powder is poured from a funnel onto a flat surface until a cone of powder is created. The angle of repose is calculated according to the following equation:
# [formula] • Where: • h: height of the cone (mm) • r: radius of the cone (mm)
# The height of the cone was estimated with calipers.
# [6] = by compressibility index and Hausner ratio
# Experimental: Although there are some variations in the method of determining the compressibility index and Hausner ratio, the basic procedure is to measure the unsettled apparent volume, VO, and the final tapped volume, Vf, of the powder after tapping the material until no further volume changes occur. The compressibility index and the Hausner ratio are calculated as follows: […]
# Powder was carefully poured into a 5 mL glass graduated cylinder (to contain) until it was close to or at 5.0 mL. This initial volume was recorded as Vo. The graduated cylinder was tapped on a hard surface for 200 times and the volume was recorded. The cylinder was tapped 100 times more, and the final volume Vf was recorded.
# [7] = after jet milling
# Experimental: Crystalline 25HC3S was placed in a JAM-2-2002 mill under nitrogen and milled. The materials were then placed into product containers. Jet milling was conducted at a feed rate of 300 g/hour, with a venturi pressure of 50 psi and mill pressure of 120 psi of nitrogen. The target specification was set to having a Dv (90) of less than 10 microns.
# [8] = Clinical study: safety and tolerability of oral doses of 25HC3S; assay type: in vivo, healthy male and female subjects
# Source text: The secondary objective for both Parts 1 and 2 of the study was: • To provide information on the safety and tolerability of oral doses of 25HC3S in healthy subjects
# The evaluation of safety parameters comprised analysis of adverse events, laboratory variables (hematology, clinical chemistry and urinalysis), vital signs, electrocardiograms (ECGs) and physical examination findings.
compound,measurement,setting,value
"C[C@H](CCCC(C)(C)O)[C@H]1CC[C@H]2[C@@H]3CC=C4C[C@@H](OS(=O)(=O)[O-])CC[C@]4(C)[C@H]3CC[C@]12C.C[N+](C)(C)CCO [25HC3S choline, 25-hydroxy-3β-cholesten-5-en-3-sulfate (25HC3S) choline]",Solubility in 0.9% Sodium Chloride,[1],low solubility
same,Solubility in 5% Dextrose,[1],0.093 mg/mL as Free Acid
same,Solubility in ACN,[1],0.5 mg/mL as Free Acid
same,Solubility in EtOH,[1],3.4 mg/mL as Free Acid
same,Solubility in IPA,[1],0.6 mg/mL as Free Acid
same,Solubility in MeOH,[1],17.5 mg/mL as Free Acid
same,Solubility in Water,[1],0.107 mg/mL as Free Acid
same,% Impurities 25-HC (25-Hydroxy-Cholesterol),"[2]; 2-8° C., 3 wk",0.2%
same,% Impurities SD (Sulfate Desmosterol),"[2]; 2-8° C., 3 wk",0.4%
same,% Impurities Total,"[2]; 2-8° C., 3 wk",1.0%
same,Appearance,"[2]; 2-8° C., 3 wk","White, free flowing powder with clumping"
same,Assay,"[2]; 2-8° C., 3 wk",101.6 % w/w
same,% Impurities 25-HC (25-Hydroxy-Cholesterol),"[2]; 2-8° C., 5 wk",0.2%
same,% Impurities SD (Sulfate Desmosterol),"[2]; 2-8° C., 5 wk",0.3%
same,% Impurities Total,"[2]; 2-8° C., 5 wk",0.9%
same,Appearance,"[2]; 2-8° C., 5 wk","White, free flowing powder with clumping"
same,Assay,"[2]; 2-8° C., 5 wk",108.1 % w/w
same,% Impurities 25-HC (25-Hydroxy-Cholesterol),"[2]; 80° C., 3 wk",0.4%
same,% Impurities SD (Sulfate Desmosterol),"[2]; 80° C., 3 wk",0.4%
same,% Impurities Total,"[2]; 80° C., 3 wk",1.2%
same,% Recovery of 2-8° C./3 wk VS 80° C../3 wk,"[2]; 80° C., 3 wk",100.8%
same,Appearance,"[2]; 80° C., 3 wk","White, free flowing powder with clumping"
same,Assay,"[2]; 80° C., 3 wk",102.4 % w/w
same,% Impurities 25-HC (25-Hydroxy-Cholesterol),"[2]; 80° C., 5 wk",0.2%
same,% Impurities SD (Sulfate Desmosterol),"[2]; 80° C., 5 wk",0.8%
same,% Impurities Total,"[2]; 80° C., 5 wk",2.2%
same,% Recovery of 2-8º C./5 wk VS 80° C./5 wk,"[2]; 80° C., 5 wk",97.3%
same,Appearance,"[2]; 80° C., 5 wk","White, free flowing powder with clumping"
same,Assay,"[2]; 80° C., 5 wk",105.2 % w/w
same,weight loss on the return to 5% relative humidity,[3]; DVS desorption 95% to 5% RH,0.5%
same,drug release,[4],~ 10%
same,Flow Property per USP<1174> Powder Flow,[5],Good (31-35)
same,Scale of Flowability per USP<1174> (Flow Character),[6],"Very, very poor (>38)"
C[C@H](CCCC(C)(C)O)[C@H]1CC[C@H]2[C@@H]3CC=C4C[C@@H](OS(=O)(=O)[O-])CC[C@]4(C)[C@H]3CC[C@]12C.C[N+](C)(C)CCO [Micronized 25HC3S choline],composite Dv (90),[7],4 microns
"C[C@H](CCCC(C)(C)O)[C@H]1CCC2C3CC=C4C[C@@H](OS(=O)(=O)O)CC[C@]4(C)C3CC[C@@]21C (stereo partly drawn) [Tablet 25HC3S, [(3S,10R,13R,17R)-17-[(1R)-5-hydroxy-1,5-dimethyl-hexyl]-10,13-dimethyl-2,3,4,7,8,9,11,12,14,15,16,17-dodecahydro-1H-cyclopenta[a]phenanthren-3-yl]sulfate]","subjects reporting TEAEs, overall","[8]; 16 subjects, all TEAEs mild, not related to IMP",2 (12.5%)
same,serious or severe TEAEs or deaths,[8]; all regimens,"No serious, severe treatment-emergent adverse events (TEAEs) or deaths were reported"
same,tolerability,"[8]; choline salt IR formulations up to 50 mg fed and fasted, sodium salt PiB and choline salt PiB 12.5 mg fasted",well tolerated
same,total number of TEAEs,[8]; overall,4
"C[C@H](CCCC(C)(C)O)[C@H]1CC[C@H]2[C@@H]3CC=C4C[C@@H](OS(=O)(=O)[O-])CC[C@]4(C)[C@H]3CC[C@]12C.[Na+] [crystalline 25HC3S sodium, Sodium [(3S,10R,13R,17R)-17-[(1R)-5-hydroxy-1,5-dimethyl-hexyl]-10,13-dimethyl-2,3,4,7,8,9,11,12,14,15,16,17-dodecahydro-1H-cyclopenta[a]phenanthren-3-yl]sulfate, reference compound]","water uptake (DVS isotherm, in words)","[3]; until about 95% relative humidity, batch containing Form I and Form II",significant water uptake
